Our source for the DC50 values is US20240190880A1 (THE REGENTS OF THE UNIVERSITY OF MICHIGAN, priority 2021, published 2024).

Usually DC50 stands for the midpoint of the concentration-degradation curve.

Each structure is given as a SMILES string.

For the first test, the target named is T1, ER (Homo sapiens, UniProt P03372).
T1 construct: host or cells: T47D and MCF7 human breast cancer cells
T1 sequence (P03372 1-595): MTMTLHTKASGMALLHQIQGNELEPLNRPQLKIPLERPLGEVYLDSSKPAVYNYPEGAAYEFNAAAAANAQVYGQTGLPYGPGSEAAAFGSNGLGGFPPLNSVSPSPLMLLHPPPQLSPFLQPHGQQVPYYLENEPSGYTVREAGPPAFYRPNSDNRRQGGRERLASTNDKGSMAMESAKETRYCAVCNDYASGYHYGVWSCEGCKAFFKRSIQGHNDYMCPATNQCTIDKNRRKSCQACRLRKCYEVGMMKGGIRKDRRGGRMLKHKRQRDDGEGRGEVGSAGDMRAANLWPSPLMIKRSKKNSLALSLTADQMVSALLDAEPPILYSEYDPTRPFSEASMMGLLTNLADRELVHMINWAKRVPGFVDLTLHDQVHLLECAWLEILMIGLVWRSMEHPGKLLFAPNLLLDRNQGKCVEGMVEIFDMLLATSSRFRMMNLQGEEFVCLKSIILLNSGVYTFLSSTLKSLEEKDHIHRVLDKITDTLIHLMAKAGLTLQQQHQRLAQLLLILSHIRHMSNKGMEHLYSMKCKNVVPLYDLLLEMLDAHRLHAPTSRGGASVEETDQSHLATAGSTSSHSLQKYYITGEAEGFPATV
Nature of the test: ER degradation activity, in-cell western blot analysis in T47D cells. It is filed as cell-based. The conditions noted are these: 16 hours, Table A does not say which cell line (T47D or MCF7), read-out: Potency (DC50). Summed up:
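ER protein remaining after 16 h compound exposure is quantified in T47D cells by in-cell western, with a no-primary-antibody background control. Values are percentages of DMSO-treated signal.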
Take `C[C@@H]1Cc2cc(O)ccc2[C@@H](c2c(F)cc(N3CC4(CCN(C(=O)CN5Cc6cc7c(cc6C5)C(=O)N(C5CCC(=O)NC5=O)C7)C4)C3)cc2F)N1CC(F)F` (stereo partly drawn) [E 36, 3-(6-(2-(2-(4-((1S,3R)-2-(2,2-difluoroethyl)-6-hydroxy-3-methyl-1,2,3,4-tetrahydroisoquinolin-1-yl)-3,5-difluorophenyl)-2,6-diazaspiro[3.4]octan-6-yl)-2-oxoethyl)-1-oxo-3,5,6,7-tetrahydropyrrolo[3,4-f]isoindol-2(1H)-yl)piperidine-2,6-dione]: the DC50 was less than 10 nM. Same read-out and setting: the result for `O=C1CCC(N2C(=O)c3cc4c(cc3C2=O)CN(CC(=O)N2CCC(N3CC(Oc5ccc([C@@H]6c7ccc(O)cc7CC[C@@H]6c6ccccc6)cc5)C3)CC2)C4)C(=O)N1` (stereo partly drawn) [E 377, 2-(2,6-dioxopiperidin-3-yl)-6-(2-(4-(3-(4-((1R,2S)-6-hydroxy-2-phenyl-1,2,3,4-tetrahydronaphthalen-1-yl)phenoxy)azetidin-1-yl)piperidin-1-yl)-2-oxoethyl)-6,7-dihydropyrrolo[3,4-f]isoindole-1,3(2H,5H)-dione] reads 10 to 100 nM; that for `C[C@@H]1Cc2cc(O)ccc2[C@@H](c2c(F)cc(N3CCC(C(=O)N4CCC(N5Cc6cc7c(cc6C5)C(=O)N(C5CCC(=O)NC5=O)C7=O)CC4)CC3)cc2F)N1CC(F)F` (stereo partly drawn) [E 269, 6-(1-(1-(4-((1S,3R)-2-(2,2-difluoroethyl)-6-hydroxy-3-methyl-1,2,3,4-tetrahydroisoquinolin-1-yl)-3,5-difluorophenyl)piperidine-4-carbonyl)piperidin-4-yl)-2-(2,6-dioxopiperidin-3-yl)-6,7-dihydropyrrolo[3,4-f]isoindole-1,3(2H,5H)-dione], greater than 100 nM; that for `C[C@@H]1Cc2cc(O)ccc2[C@@H](c2c(F)cc(N3CCC(N4CC(CN5Cc6cc7c(cc6C5)C(=O)N(C5CCC(=O)NC5=O)C7=O)C4)CC3)cc2F)N1CC(F)F` (stereo partly drawn) [E 46, 6-((1-(1-(4-((1S,3R)-2-(2,2-difluoroethyl)-6-hydroxy-3-methyl-1,2,3,4-tetrahydroisoquinolin-1-yl)-3,5-difluorophenyl)piperidin-4-yl)azetidin-3-yl)methyl)-2-(2,6-dioxopiperidin-3-yl)-6,7-dihydropyrrolo[3,4-f]isoindole-1,3(2H,5H)-dione], greater than 100 nM. For the compound `C[C@@H]1Cc2c([nH]c3ccccc23)[C@@H](c2cnc(N3CCC4(CCN(C(=O)CN5Cc6cc7c(cc6C5)C(=O)N(C5CCC(=O)NC5=O)C7=O)CC4)CC3)nc2)N1CC(F)F` (stereo partly drawn) [E 258, 6-(2-(9-(5-((1R,3R)-2-(2,2-difluoroethyl)-3-methyl-2,3,4,9-tetrahydro-1H-pyrido[3,4-b]indol-1-yl)pyrimidin-2-yl)-3,9-diazaspiro[5.5]undecan-3-yl)-2-oxoethyl)-2-(2,6-dioxopiperidin-3-yl)-6,7-dihydropyrrolo[3,4-f]isoindole-1,3(2H,5H)-dione], the DC50 was less than 10 nM.

On to `O=C1CCC(N2C(=O)c3cc4c(cc3C2=O)CN(CC2CN(CC3CCN(c5ccc([C@@H]6c7ccc(O)cc7CC[C@@H]6c6ccc(F)cc6)cc5)CC3)C2)C4)C(=O)N1` (stereo partly drawn) [E 274, 2-(2,6-dioxopiperidin-3-yl)-6-((1-((1-(4-((1R,2S)-2-(4-fluorophenyl)-6-hydroxy-1,2,3,4-tetrahydronaphthalen-1-yl)phenyl)piperidin-4-yl)methyl)azetidin-3-yl)methyl)-6,7-dihydropyrrolo[3,4-f]isoindole-1,3(2H,5H)-dione], for which the DC50 was greater than 100 nM. Turning to `O=C1CCC(N2C(=O)c3cc4c(cc3C2=O)CN(CCC(=O)NC2CCN(c3ccc([C@@H]5c6ccc(O)cc6CC[C@@H]5c5ccccc5)cc3)CC2)C4)C(=O)N1` (stereo partly drawn) [E332, 3-(6-(2,6-dioxopiperidin-3-yl)-5,7-dioxo-3,5,6,7-tetrahydropyrrolo[3,4-f]isoindol-2(1H)-yl)-N-(1-(4-((1R,2S)-6-hydroxy-2-phenyl-1,2,3,4-tetrahydronaphthalen-1-yl)phenyl)piperidin-4-yl)propanamide], the DC50 was greater than 100 nM. On the same count and under the same terms, as for `C[C@@H]1Cc2cc(O)ccc2[C@@H](c2c(F)cc(N3CCC4(CC3)CN(C(=O)CN3Cc5cc6c(cc5C3)C(=O)N(C3CCC(=O)NC3=O)C6=O)C4)cc2F)N1CC(F)F` (stereo partly drawn) [E 41, 6-(2-(7-(4-((1S,3R)-2-(2,2-difluoroethyl)-6-hydroxy-3-methyl-1,2,3,4-tetrahydroisoquinolin-1-yl)-3,5-difluorophenyl)-2,7-diazaspiro[3.5]nonan-2-yl)-2-oxoethyl)-2-(2,6-dioxopiperidin-3-yl)-6,7-dihydropyrrolo[3,4-f]isoindole-1,3(2H,5H)-dione], the figure is less than 10 nM; as for `C[C@@H]1Cc2c([nH]c3ccccc23)[C@@H](c2cnc(N3CCC(C(=O)N4CCC(N5Cc6cc7c(cc6C5)C(=O)N(C5CCC(=O)NC5=O)C7=O)CC4)CC3)nc2)N1CC(F)(F)F` (stereo partly drawn) [E 257, 2-(2,6-dioxopiperidin-3-yl)-6-(1-(1-(5-((1R,3R)-3-methyl-2-(2,2,2-trifluoroethyl)-2,3,4,9-tetrahydro-1H-pyrido[3,4-b]indol-1-yl)pyrimidin-2-yl)piperidine-4-carbonyl)piperidin-4-yl)-6,7-dihydropyrrolo[3,4-f]isoindole-1,3(2H,5H)-dione], less than 10 nM. Still for that read-out and setting: as for `C[C@@H]1Cc2c([nH]c3ccccc23)[C@@H](c2c(F)cc(C3CCC(C(=O)N4CC(N5Cc6cc7c(cc6C5)C(=O)N(C5CCC(=O)NC5=O)C7=O)C4)CC3)cc2F)N1CC(F)F` (stereo partly drawn) [E249, 6-(1-(4-(4-((1R,3R)-2-(2,2-difluoroethyl)-3-methyl-2,3,4,9-tetrahydro-1H-pyrido[3,4-b]indol-1-yl)-3,5-difluorophenyl)cyclohexane-1-carbonyl)azetidin-3-yl)-2-(2,6-dioxopiperidin-3-yl)-6,7-dihydropyrrolo[3,4-f]isoindole-1,3(2H,5H)-dione], the figure is greater than 100 nM. In the case of `C[C@@H]1Cc2c([nH]c3ccccc23)[C@@H](c2c(F)cc(N3CCC(C(=O)N4CC(N5Cc6cc7c(cc6C5)C(=O)N(C5CCC(=O)NC5=O)C7=O)C4)CC3)cc2F)N1CC(F)F` (stereo partly drawn) [E 235, 6-(1-(1-(4-((1R,3R)-2-(2,2-difluoroethyl)-3-methyl-2,3,4,9-tetrahydro-1H-pyrido[3,4-b]indol-1-yl)-3,5-difluorophenyl)piperidine-4-carbonyl)azetidin-3-yl)-2-(2,6-dioxopiperidin-3-yl)-6,7-dihydropyrrolo[3,4-f]isoindole-1,3(2H,5H)-dione], the DC50 was greater than 100 nM.

Take `O=C1CCC(N2C(=O)c3cc4c(cc3C2=O)CN(C[C@H]2CC[C@H](N3CC(Nc5ccc([C@@H]6c7ccc(O)cc7CC[C@@H]6c6ccccc6)cc5)C3)CC2)C4)C(=O)N1` (stereo partly drawn) [E 374, 2-(2,6-dioxopiperidin-3-yl)-6-(((1R,4r)-4-(3-((4-((1R,2S)-6-hydroxy-2-phenyl-1,2,3,4-tetrahydronaphthalen-1-yl)phenyl)amino)azetidin-1-yl)cyclohexyl)methyl)-6,7-dihydropyrrolo[3,4-f]isoindole-1,3(2H,5H)-dione]: the DC50 was greater than 100 nM.

Consider `C[C@@H]1Cc2c([nH]c3ccccc23)[C@@H](c2c(F)cc(N3CCCC4(CCN(C(=O)CN5Cc6cc7c(cc6C5)C(=O)N(C5CCC(=O)NC5=O)C7=O)C4)C3)cc2F)N1CC(F)F` (stereo partly drawn) [E 78, 6-(2-(7-(4-((1R,3R)-2-(2,2-difluoroethyl)-3-methyl-2,3,4,9-tetrahydro-1H-pyrido[3,4-b]indol-1-yl)-3,5-difluorophenyl)-2,7-diazaspiro[4.5]decan-2-yl)-2-oxoethyl)-2-(2,6-dioxopiperidin-3-yl)-6,7-dihydropyrrolo[3,4-f]isoindole-1,3(2H,5H)-dione], for which the DC50 is greater than 100 nM.

The same test, now with this note: compounds 16 hours, Table A does not say whether T47D or MCF7, read-out: Potency (DC50).
`O=C1CCC(N2Cc3cc4c(cc3C2=O)CN(C[C@H]2CC[C@H](C(=O)N3CC(Oc5ccc([C@@H]6c7ccc(O)cc7CC[C@@H]6c6ccccc6)cc5)C3)CC2)C4)C(=O)N1` (mixture of isomers) [E 499, 3-(6-(((IRS,4SR)-4-(3-(4-((1R,2S)-6-hydroxy-2-phenyl-1,2,3,4-tetrahydronaphthalen-1-yl)phenoxy)azetidine-1-carbonyl)cyclohexyl)methyl)-1-oxo-3,5,6,7-tetrahydropyrrolo[3,4-f]isoindol-2(1H)-yl)piperidine-2,6-dione]: the DC50 was in the range of 10 to 100 nM.

Take `O=C1CCC(N2C(=O)c3cc4c(cc3C2=O)CN(CC(=O)N2CCC3(CC2)CCN(C(=O)c2ccc([C@@H]5c6ccc(O)cc6CC[C@@H]5c5ccccc5)cc2)CC3)C4)C(=O)N1` (stereo partly drawn) [E 495, 2-(2,6-dioxopiperidin-3-yl)-6-(2-(9-(4-((1R,2S)-6-hydroxy-2-phenyl-1,2,3,4-tetrahydronaphthalen-1-yl)benzoyl)-3,9-diazaspiro[5.5]undecan-3-yl)-2-oxoethyl)-6,7-dihydropyrrolo[3,4-f]isoindole-1,3(2H,5H)-dione]: the DC50 is greater than 100 nM. Still for that read-out and setting: the result for `O=C1CCC(N2C(=O)c3cc4c(cc3C2=O)CN(CC(=O)N2CCC3(CC2)CCN(c2ccc([C@@H]5c6ccc(O)cc6OC[C@@H]5c5ccccc5)cc2)CC3)C4)C(=O)N1` (mixture of isomers) [E 467, 2-(2,6-dioxopiperidin-3-yl)-6-(2-(9-(4-(7-hydroxy-3-phenylchroman-4-yl)phenyl)-3,9-diazaspiro[5.5]undecan-3-yl)-2-oxoethyl)-6,7-dihydropyrrolo[3,4-f]isoindole-1, 3(2H,5H)-dione] reads greater than 100 nM.
